Source: US20190085024A1, “Alpha-Ketoamide Inhibitors Of Cysteine Proteases” (Phelix Therapeutics, priority 2017, published 2019)

What was measured:
Calpain = Calpain enzyme assay; format: biochemical; settings: Ki by Morrison equation; pH 7.5, 5 mM CaCl2
Cathepsin L = Cathepsin L (Homo sapiens, UniProt P07711); test: Cathepsin L enzyme assay; format: biochemical; settings: Ki by Morrison equation; pH 5.5, substrate Z-Phe-Arg-Amc; read-out: Cat L
Source text: Two wells contained DMSO only for controls.
Velocity was converted to μM/sec.

Chain of Cathepsin L (P07711 114-333, species assumed): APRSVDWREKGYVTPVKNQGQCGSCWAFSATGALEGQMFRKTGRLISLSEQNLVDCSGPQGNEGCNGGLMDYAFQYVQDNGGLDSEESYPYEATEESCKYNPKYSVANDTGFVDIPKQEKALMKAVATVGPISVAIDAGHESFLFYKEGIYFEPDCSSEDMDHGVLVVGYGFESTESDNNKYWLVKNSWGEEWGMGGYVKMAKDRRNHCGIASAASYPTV

Compound	Ki (Calpain)	Ki (Cathepsin L)
CC[C@H](C)C(NC(=O)[C@H](CC(C)C)NC(=O)OCc1ccccc1)C(=O)C(=O)NCC(=O)N[C@H](Cc1ccc2ccccc2c1)C(N)=O (stereo partly shown) [PHELIX304, benzyl (1-((1-((2-((1-amino-3-(naphthalen-2-yl)-1-oxopropan-2-yl)amino)-2-oxoethyl)amino)-4-methyl-1,2-dioxohexan-3-yl)amino)-4-methyl-1-oxopentan-2-yl)carbamate]	0.00824 µM	0.0006 µM
CCC(C)C(C(=O)C(=O)NCC(=O)NC(Cc1ccc2ccccc2c1)C(N)=O)N(C)C(=O)C(CC(C)C)NC(=O)OCc1ccccc1 (stereo not shown) [PHELIX305, benzyl (1-((1-((2-((1-amino-3-(naphthalen-2-yl)-1-oxopropan-2-yl)amino)-2-oxoethyl)amino)-4-methyl-1,2-dioxohexan-3-yl)(methyl)amino)-4-methyl-1-oxopentan-2-yl)carbamate]	9.45 µM	0.912 µM
CCC(C)C(C(=O)C(=O)NCC(=O)NC(Cc1ccc2ccccc2c1)C(N)=O)N(C)C(=O)C(CC(C)C)NC(=O)OCc1ccccc1 (stereo not shown) [PHELIX306, benzyl (1-((1-((2-((1-amino-3-(naphthalen-2-yl)-1-oxopropan-2-yl)amino)-2-oxoethyl)amino)-4-methyl-1,2-dioxohexan-3-yl)(methyl)amino)-4-methyl-1-oxopentan-2-yl)carbamate]	0.447 µM	0.0776 µM
CCC(C)C(NC(=O)C(Cc1c[nH]cn1)NC(=O)Cc1ccccc1)C(=O)C(=O)NCC(=O)NC(Cc1ccc2ccccc2c1)C(N)=O (stereo not shown) [PHELIX308, 3-(3-(1H-imidazol-4-yl)-2-(2-phenylacetamido)propanamido)-N-(2-((1-amino-3-(naphthalen-2-yl)-1-oxopropan-2-yl)amino)-2-oxoethyl)-4-methyl-2-oxohexanamide]	1.51 µM	0.956 µM
CCC(C)C(NC(=O)C(Cc1c[nH]cn1)NC(=O)OCc1ccccc1)C(=O)C(=O)NCC(=O)NC(Cc1ccc2ccccc2c1)C(N)=O (stereo not shown) [PHELIX311, benzyl (1-((1-((2-((1-amino-3-(naphthalen-2-yl)-1-oxopropan-2-yl)amino)-2-oxoethyl)amino)-4-methyl-1,2-dioxohexan-3-yl)amino)-3-(1H-imidazol-4-yl)-1-oxopropan-2-yl)carbamate]	0.309 µM	0.106 µM
CCC(C)C(NC(=O)C(CC(C)C)NC(=O)Cc1cccnc1)C(=O)C(=O)NCC(=O)NC(Cc1ccc2ccccc2c1)C(N)=O (stereo not shown) [PHELIX312, N-(2-((1-amino-3-(naphthalen-2-yl)-1-oxopropan-2-yl)amino)-2-oxoethyl)-4-methyl-3-(4-methyl-2-(2-(pyridin-3-yl)acetamido)pentanamido)-2-oxohexanamide]	0.00081 µM	0.00265 µM
CCC(C)C(NC(=O)C(CC(C)C)NC(=O)CN1CCN(C)CC1)C(=O)C(=O)NCC(=O)NC(Cc1ccc2ccccc2c1)C(N)=O (stereo not shown) [PHELIX313, N-(2-((1-amino-3-(naphthalen-2-yl)-1-oxopropan-2-yl)amino)-2-oxoethyl)-4-methyl-3-(4-methyl-2-(2-(4-methylpiperazin-1-yl)acetamido)pentanamido)-2-oxohexanamide]	0.00991 µM	< 0.0001 µM
CCC(C)C(NC(=O)C(CC(C)C)NC(=O)OCc1ccccc1)C(=O)C(=O)NC(CC(N)=O)C(=O)NC(Cc1ccc2ccccc2c1)C(N)=O (stereo not shown) [PHELIX316, benzyl (1-((1-((4-amino-1-((1-amino-3-(naphthalen-2-yl)-1-oxopropan-2-yl)amino)-1,4-dioxobutan-2-yl)amino)-4-methyl-1,2-dioxohexan-3-yl)amino)-4-methyl-1-oxopentan-2-yl)carbamate]	0.00801 µM	0.00333 µM
CCC(C)C(NC(=O)C(CC(C)C)NC(=O)OCc1ccccc1)C(=O)C(=O)NC(CCC(N)=O)C(=O)NC(Cc1ccc2ccccc2c1)C(N)=O (stereo not shown) [PHELIX317, benzyl (1-((1-((5-amino-1-((1-amino-3-(naphthalen-2-yl)-1-oxopropan-2-yl)amino)-1,5-dioxopentan-2-yl)amino)-4-methyl-1,2-dioxohexan-3-yl)amino)-4-methyl-1-oxopentan-2-yl)carbamate]	0.0198 µM	0.00137 µM
CCC(C)C(NC(=O)C(CC(C)C)NC(=O)OCc1ccccc1)C(=O)C(=O)NCC(=O)NC(Cc1ccccc1)C(N)=O (stereo not shown) [PHELIX318, benzyl (1-((1-((2-((1-amino-1-oxo-3-phenylpropan-2-yl)amino)-2-oxoethyl)amino)-4-methyl-1,2-dioxohexan-3-yl)amino)-4-methyl-1-oxopentan-2-yl)carbamate]	0.00163 µM	0.00382 µM
CCC(C)C(NC(=O)C(CCC(N)=O)NC(=O)Cc1ccccc1)C(=O)C(=O)NCC(=O)NC(Cc1ccc2ccccc2c1)C(N)=O (stereo not shown) [PHELIX320, N^1-(1-((2-((1-amino-3-(naphthalen-2-yl)-1-oxopropan-2-yl)amino)-2-oxoethyl)amino)-4-methyl-1,2-dioxohexan-3-yl)-2-(2-phenylacetamido)pentanediamide]	0.0386 µM	0.495 µM
CCC(C)C(NC(=O)C(Cc1ccccc1)NC(=O)Cc1ccccc1)C(=O)C(=O)NCC(=O)NC(Cc1ccc2ccccc2c1)C(N)=O (stereo not shown) [PHELIX321, N-(2-((1-amino-3-(naphthalen-2-yl)-1-oxopropan-2-yl)amino)-2-oxoethyl)-4-methyl-2-oxo-3-(3-phenyl-2-(2-phenylacetamido)propanamido)hexanamide]	0.0839 µM	< 0.0001 µM
CCC(C)C(NC(=O)C(CC(N)=O)NC(=O)Cc1ccccc1)C(=O)C(=O)NCC(=O)NC(Cc1ccc2ccccc2c1)C(N)=O (stereo not shown) [PHELIX322, N^1-(1-((2-((1-amino-3-(naphthalen-2-yl)-1-oxopropan-2-yl)amino)-2-oxoethyl)amino)-4-methyl-1,2-dioxohexan-3-yl)-2-(2-phenylacetamido)succinamide]	0.071 µM	0.101 µM
CCC(C)C(NC(=O)C(NC(=O)Cc1ccccc1)C(C)(C)C)C(=O)C(=O)NCC(=O)NC(Cc1ccc2ccccc2c1)C(N)=O (stereo not shown) [PHELIX323, N-(2-((1-amino-3-(naphthalen-2-yl)-1-oxopropan-2-yl)amino)-2-oxoethyl)-3-(3,3-dimethyl-2-(2-phenylacetamido)butanamido)-4-methyl-2-oxohexanamide]	2.37 ± 1.05 µM	0.273 µM
CCC(C)C(NC(=O)C(CC(C)C)NC(=O)Cc1ccccn1)C(=O)C(=O)NCC(=O)NC(Cc1ccc2ccccc2c1)C(N)=O (stereo not shown) [PHELIX324, N-(2-((1-amino-3-(naphthalen-2-yl)-1-oxopropan-2-yl)amino)-2-oxoethyl)-4-methyl-3-(4-methyl-2-(2-(pyridin-2-yl)acetamido)pentanamido)-2-oxohexanamide]	0.00815 µM	0.00132 µM
CCC(C)C(NC(=O)OCc1ccccc1)C(=O)C(=O)NCC(=O)NC(Cc1ccc2ccccc2c1)C(N)=O (stereo not shown) [PHELIX325, benzyl (1-((2-((1-amino-3-(naphthalen-2-yl)-1-oxopropan-2-yl)amino)-2-oxoethyl)amino)-4-methyl-1,2-dioxohexan-3-yl)carbamate]	1.21 µM	0.239 µM
CCC(C)C(NC(=O)C(CC(C)C)NC(=O)OCc1ccccc1)C(=O)C(=O)NC(CC(N)=O)Cc1ccccc1 (stereo not shown) [PHELIX326, benzyl (1-((1-((4-amino-4-oxo-1-phenylbutan-2-yl)amino)-4-methyl-1,2-dioxohexan-3-yl)amino)-4-methyl-1-oxopentan-2-yl)carbamate]	0.702 µM	0.0602 µM
CCC(C)C(NC(=O)C(CC(C)C)NC(=O)OCc1ccccc1)C(=O)C(=O)NCC(=O)NC(Cc1cc2ccccc2[nH]1)C(N)=O (stereo not shown) [PHELIX327, benzyl (1-((1-((2-((1-amino-3-(1H-indol-2-yl)-1-oxopropan-2-yl)amino)-2-oxoethyl)amino)-4-methyl-1,2-dioxohexan-3-yl)amino)-4-methyl-1-oxopentan-2-yl)carbamate]	0.00998 µM	0.00933 µM
CCC(C)C(NC(=O)C(CC(C)C)NC(=O)OCc1ccccc1)C(=O)C(=O)NC(Cc1cnc[nH]1)C(=O)NC(Cc1ccc2ccccc2c1)C(N)=O (stereo not shown) [PHELIX328, benzyl (1-((1-((1-((1-amino-3-(naphthalen-2-yl)-1-oxopropan-2-yl)amino)-3-(1H-imidazol-5-yl)-1-oxopropan-2-yl)amino)-4-methyl-1,2-dioxohexan-3-yl)amino)-4-methyl-1-oxopentan-2-yl)carbamate]	0.0351 µM	0.00252 µM
CCC(C)C(NC(=O)C(CC(C)C)NC(=O)OCc1ccccc1)C(=O)C(=O)NC(CCCNC(=N)N)C(=O)NC(Cc1ccc2ccccc2c1)C(N)=O (stereo not shown) [PHELIX329, benzyl (1-((1-((1-((1-amino-3-(naphthalen-2-yl)-1-oxopropan-2-yl)amino)-5-guanidino-1-oxopentan-2-yl)amino)-4-methyl-1,2-dioxohexan-3-yl)amino)-4-methyl-1-oxopentan-2-yl)carbamate]	0.111 µM	0.00267 µM
CCC(C)C(NC(=O)C(CC(C)C)NC(=O)OCc1ccccc1)C(=O)C(=O)NC(CCCNC(=N)N)C(=O)NC(Cc1ccc2ccccc2c1)C(N)=O (stereo not shown) [PHELIX330, benzyl (1-((1-((1-((1-amino-3-(naphthalen-2-yl)-1-oxopropan-2-yl)amino)-5-guanidino-1-oxopentan-2-yl)amino)-4-methyl-1,2-dioxohexan-3-yl)amino)-4-methyl-1-oxopentan-2-yl)carbamate]	0.0214 µM	0.00291 µM
CCC(C)C(NC(=O)C(CC(C)(C)C)NC(=O)Cc1ccccc1)C(=O)C(=O)NCC(=O)NC(Cc1ccc2ccccc2c1)C(N)=O (stereo not shown) [PHELIX331, N-(2-((1-amino-3-(naphthalen-2-yl)-1-oxopropan-2-yl)amino)-2-oxoethyl)-3-(4,4-dimethyl-2-(2-phenylacetamido)pentanamido)-4-methyl-2-oxohexanamide]	0.00926 µM	0.00167 µM
CCC(C)C(NC(=O)C(CC1CC1)NC(=O)Cc1ccccc1)C(=O)C(=O)NCC(=O)NC(Cc1ccc2ccccc2c1)C(N)=O (stereo not shown) [PHELIX332, N-(2-((1-amino-3-(naphthalen-2-yl)-1-oxopropan-2-yl)amino)-2-oxoethyl)-3-(3-cyclopropyl-2-(2-phenylacetamido)propanamido)-4-methyl-2-oxohexanamide]	0.00237 µM	0.00115 µM
